From US11279733B2, “Peptide antibiotics” (priority 2017, dated 2022)
Converted amounts (≈) assume the structure as drawn. Read-outs that look alike come from different tables or passages of the source. Positions of bridges follow the written chain, without caps; N, C: chain ends. Non-standard residues stand in square brackets, D forms with d. Residues, ends and D or L forms follow the SMILES beside them. *: point of attachment. dPhe(4-NO2) = N[C@H](Cc1ccc([N+](=O)[O-])cc1)C(=O)O; Decanoyl(3R-OH) = CCCCCCC[C@@H](O)CC(=O)*; dDab = NCC[C@@H](N)C(=O)O; X8 = CC(C)CCCC(C)CC(=O)*; Dab = NCC[C@H](N)C(=O)O

Tests used:
[1] = tested on: P. aeruginosa ATCC 27853; conditions: ATCC 27853
Protocol: (§1) Bacteria were either obtained from American Type Culture Collection (ATCC; Manassas, Va., USA) or independent academic clinical isolate collections, as listed in Table 18 below. Bacteria were cultured in Nutrient broth (NB; Bacto Laboratories, catalogue No. 234000) or Mueller Hinton broth (MHB; Bacto Laboratories, catalogue No. 211443) at 37° C. overnight with shaking (˜180 RPM). A sample of each culture was then diluted 50-fold in fresh MHB and incubated at 37° C. for 2-3 h with shaking (˜180 RPM). Compound stock solutions were prepared as 0.64 mg/mL or 2.56 mg/mL in water. The compounds, at twice the final desired concentration, were serially diluted 2-fold across the wells of 96-well plates (Polystyrene, Corning, catalogue No. 3370). Mid-log phase bacterial cultures (after 2-3 h incubation) were diluted to a final concentration of 1×10^6 colony forming units (CFU)/mL, and 50 μL was added to each well giving a final cell density of 5×10^5 and a compound concentration range of 32 μg/mL to 0.015 μg/mL (128-0.06 μg/mL against P. aeruginosa PA9704).

[2] = tested on: P. aeruginosa GN_105, PmxR; conditions: GN 105, PmxR
Protocol: as §1

[3] = tested on: E. coli ATCC 25922; conditions: ATCC 25922
Protocol: as §1

[4] = tested on: A. baumannii GN_093 PmxR; conditions: GN 093 PmxR
Protocol: as §1

[5] = tested on: K. pneumoniae GN_106, PmxR; conditions: GN 106, PmxR
Protocol: as §1

[6] = tested on: K. pneumoniae GN_102 PmxR; conditions: GN 102 PmxR
Protocol: as §1

[7] = tested on: S. aureus ATCC 25923, MSSA; conditions: ATCC 25923
Protocol: as §1

[8] = tested on: K. pneumoniae ATCC 13883; conditions: ATCC 13883
Protocol: as §1

[9] = tested on: K. pneumoniae ATCC BAA-2146, NDM-1 pos; conditions: ATCC BAA-2146
Protocol: as §1

[10] = tested on: K. pneumoniae ATCC 700603, MDR; conditions: ATCC 700603
Protocol: as §1

[11] = tested on: P. aeruginosa GN_043, PmxR
Protocol: as §1

[12] = tested on: A. baumannii ATCC 19606; conditions: ATCC 19606
Protocol: as §1

`CCCCCCC[C@@H](O)CC(=O)NCC(=O)N[C@H]1CCNC(=O)[C@H](CC(C)C)NC(=O)[C@H](CCN)NC(=O)[C@H](CCN)NC(=O)[C@H](CC(C)C)NC(=O)[C@@H](Cc2ccccc2)NC(=O)[C@H](CCN)NC1=O` [compound 6446, 3(R)OH-nC9CO-Gly-cyc[L-Dab-L-Dab-D-Phe-L-Leu-L-Dab-L-Dab-L-Leu]] ({Decanoyl(3R-OH)}-G[Dab][Dab][dF]L[Dab][Dab]L; lactam 2-C) was tested, and the “MIC, P. aeruginosa ATCC 27853” value [1] was 4 µg/mL (≈ 3.99 µM), the “MIC P. aeruginosa GN_105, PmxR” value [2] was 4 µg/mL (≈ 3.99 µM) and the “MIC, E. coli ATCC 25922” value [3] was 8 µg/mL (≈ 7.99 µM). For the same compound, the “MIC A. baumannii GN_093 PmxR” value [4] was 32 µg/mL (≈ 32 µM), the “MIC K. pneumoniae GN_106, PmxR” value [5] was 8 µg/mL (≈ 7.99 µM) and the “MIC K. pneumoniae GN_102 PmxR” value [6] was 4 µg/mL (≈ 3.99 µM). For the same compound, the “MIC, S. aureus ATCC 25923, MSSA” value [7] was >32 µg/mL, the “MIC, K. pneumoniae ATCC 13883” value [8] was 8 µg/mL (≈ 7.99 µM) and the “MIC, K. pneumoniae ATCC BAA-2146, NDM-1 pos” value [9] was 8 µg/mL (≈ 7.99 µM). The “MIC, K. pneumoniae ATCC 700603, MDR” value [10] was 8 µg/mL (≈ 7.99 µM), the “MIC P. aeruginosa GN_043, PmxR” value ([11]; Table 6, polymyxin-resistant) was 4 µg/mL (≈ 3.99 µM) and the “MIC, A. baumannii ATCC 19606” value [12] was 32 µg/mL (≈ 32 µM).
In the case of `CCCCCCC[C@@H](O)CC(=O)N[C@H](CC(N)=O)C(=O)N[C@H]1CCNC(=O)[C@H](CC(C)C)NC(=O)[C@H](CCN)NC(=O)[C@H](CCN)NC(=O)[C@H](CC(C)C)NC(=O)[C@@H](Cc2ccccc2)NC(=O)[C@H](CCN)NC1=O` [compound 6447, 3(R)OH-nC9CO-D-Asn-cyc[L-Dab-L-Dab-D-Phe-L-Leu-L-Dab-L-Dab-L-Leu]] ({Decanoyl(3R-OH)}-[dN][Dab][Dab][dF]L[Dab][Dab]L; lactam 2-C), the “MIC, P. aeruginosa ATCC 27853” value [1] is reported as 8 µg/mL (≈ 7.56 µM), the “MIC P. aeruginosa GN_105, PmxR” value [2] is reported as 4 µg/mL (≈ 3.78 µM) and the “MIC, E. coli ATCC 25922” value [3] is reported as 4 µg/mL (≈ 3.78 µM). For the same compound, the “MIC A. baumannii GN_093 PmxR” value [4] was 8 µg/mL (≈ 7.56 µM), the “MIC K. pneumoniae GN_106, PmxR” value [5] was 4 µg/mL (≈ 3.78 µM) and the “MIC K. pneumoniae GN_102 PmxR” value [6] was 4 µg/mL (≈ 3.78 µM). The “MIC, S. aureus ATCC 25923, MSSA” value [7] was 32 µg/mL (≈ 30.2 µM), the “MIC, K. pneumoniae ATCC 13883” value [8] was 4 µg/mL (≈ 3.78 µM) and the “MIC, K. pneumoniae ATCC BAA-2146, NDM-1 pos” value [9] was 8 µg/mL (≈ 7.56 µM). The “MIC, K. pneumoniae ATCC 700603, MDR” value [10] was 8 µg/mL (≈ 7.56 µM), the “MIC P. aeruginosa GN_043, PmxR” value ([11]; Table 6, polymyxin-resistant) was 8 µg/mL (≈ 7.56 µM) and the “MIC, A. baumannii ATCC 19606” value [12] was 16 µg/mL (≈ 15.1 µM).
In the case of `CCCCCCC[C@@H](O)CC(=O)N[C@H](Cc1ccc([N+](=O)[O-])cc1)C(=O)N[C@H]1CCNC(=O)[C@H](CC(C)C)NC(=O)[C@H](CCN)NC(=O)[C@H](CCN)NC(=O)[C@H](CC(C)C)NC(=O)[C@@H](Cc2ccccc2)NC(=O)[C@H](CCN)NC1=O` [compound 6448, 3(R)OH-nC9CO-D-4NO2Phe-cyc[L-Dab-L-Dab-D-Phe-L-Leu-L-Dab-L-Dab-L-Leu]] ({Decanoyl(3R-OH)}-[dPhe(4-NO2)][Dab][Dab][dF]L[Dab][Dab]L; lactam 2-C), the “MIC, P. aeruginosa ATCC 27853” value [1] is reported as 8 µg/mL (≈ 7.04 µM), the “MIC P. aeruginosa GN_105, PmxR” value [2] is reported as 8 µg/mL (≈ 7.04 µM) and the “MIC, E. coli ATCC 25922” value [3] is reported as 4 µg/mL (≈ 3.52 µM). For the same compound, the “MIC A. baumannii GN_093 PmxR” value [4] was 8 µg/mL (≈ 7.04 µM), the “MIC K. pneumoniae GN_106, PmxR” value [5] was 4 µg/mL (≈ 3.52 µM) and the “MIC K. pneumoniae GN_102 PmxR” value [6] was 8 µg/mL (≈ 7.04 µM). The “MIC, S. aureus ATCC 25923, MSSA” value [7] was 16 µg/mL (≈ 14.1 µM), the “MIC, K. pneumoniae ATCC 13883” value [8] was 4 µg/mL (≈ 3.52 µM) and the “MIC, K. pneumoniae ATCC BAA-2146, NDM-1 pos” value [9] was 8 µg/mL (≈ 7.04 µM). The “MIC, K. pneumoniae ATCC 700603, MDR” value [10] was 8 µg/mL (≈ 7.04 µM), the “MIC P. aeruginosa GN_043, PmxR” value ([11]; Table 6, polymyxin-resistant) was 8 µg/mL (≈ 7.04 µM) and the “MIC, A. baumannii ATCC 19606” value [12] was 8 µg/mL (≈ 7.04 µM).
In the case of `CC(C)CCCC(C)CC(=O)N[C@H](CCN)C(=O)N[C@H]1CCNC(=O)[C@H](CC(C)C)NC(=O)[C@H](CCN)NC(=O)[C@H](CCN)NC(=O)[C@H](CC(C)C)NC(=O)[C@@H](Cc2ccccc2)NC(=O)[C@H](CCN)NC1=O` (stereo partly drawn) [compound 6523, 3,7-dimethyloctanoic acid-D-Dab-cyc[L-Dab-L-Dab-D-Phe-L-Leu-L-Dab-L-Dab-L-Leu]] (X8-[dDab][Dab][Dab][dF]L[Dab][Dab]L; lactam 2-C), the “MIC P. aeruginosa ATCC 27853” value [1] is reported as 2 µg/mL (≈ 1.94 µM), the “MIC P. aeruginosa GN_105, PmxR” value [2] is reported as 2 µg/mL (≈ 1.94 µM) and the “MIC E. coli ATCC 25922” value [3] is reported as 1 µg/mL (≈ 0.972 µM). The “MIC A. baumannii GN_093 PmxR” value [4] was 16 µg/mL (≈ 15.6 µM), the “MIC K. pneumoniae GN_106, PmxR” value [5] was 32 µg/mL (≈ 31.1 µM) and the “MIC K. pneumoniae GN_102 PmxR” value [6] was 16 µg/mL (≈ 15.6 µM). For the same compound, the “MIC S. aureus ATCC 25923, MSSA” value [7] was 32 µg/mL (≈ 31.1 µM), the “MIC K. pneumoniae ATCC 13883” value [8] was 4 µg/mL (≈ 3.89 µM) and the “MIC K. pneumoniae ATCC BAA-2146, NDM-1 pos” value [9] was 8 µg/mL (≈ 7.78 µM). For the same compound, the “MIC K. pneumoniae ATCC 700603, MDR” value [10] was 8 µg/mL (≈ 7.78 µM), the “MIC P. aeruginosa GN_043, PmxR” value [11] was 2 µg/mL (≈ 1.94 µM) and the “MIC A. baumannii ATCC 19606” value [12] was >32 µg/mL.
